From patent US8680058B2, “Selectively targeted antimicrobial peptides and the use thereof” (priority 2006, dated 2014) come the findings set out here.

Where two headings read alike, the source gives them in different places. No end group written: not given here.

One assay deals with S. mutans biofilms. Put plainly: Single-species biofilm regrowth after peptide exposure, S. mutans. The class given is cell-based, Streptococcus mutans. The settings on record: 25 μM peptide, 1 min exposure. The method, then: 1.5 Examination of antimicrobial activity against single-species biofilms. To initiate biofilm formation, ˜1×10^7 bacteria per well (from overnight cultures) were seeded in TH medium (100 μL) to a 96-well flat-bottom plate. For all streptococci except S. mutans, the medium was supplemented with 0.5% (w/v) mannose and glucose. S. mutans UA159 biofilms were grown with 0.5% (w/v) sucrose. Plates were then centrifuged briefly to pellet the cells, and bacteria were incubated for 3-4 hours at 37° C. for biofilm formation. After incubation, the supernatant was carefully removed and biofilms were treated with 25 μM peptide in 1×PBS or 1×PBS alone for 1 min. The peptide solution was then removed and 100 μL TH was added to further dilute any remaining peptide. To minimize biofilm loss, cells were briefly centrifuged after TH addition, after which the supernatants were removed and fresh medium plus appropriate sugars were returned. Cells were then incubated anaerobically at 37° C. and biofilm growth was monitored over time by measuring absorbance at OD600 with a microplate spectrophotometer (Benchmark Plus, BioRad).

A further assay concerns S. mutans. In kind it is cell-based, Streptococcus mutans. The method, then:
(§1) 1.3 Determination of antimicrobial activity. The general antimicrobial activity of peptides against planktonic bacteria was determined by a MIC assay in TH broth (all oral streptococci) (Qi et al., 2005).
(§2) S. mutans, S. gordonii Challis (DL1), and S. sanguinis NY101 strains were grown in Todd Hewitt (TH, Fisher) broth medium at 37° C. under anaerobic conditions (80% N2, 10% CO2, and 10% H2). S. mutans strains UA159 (Ajdic et al., 2002), ATCC 25175, and T8 (Rogers, 1975), are wild-type clinical isolates, while comD is a knockout mutant that was constructed previously from the wild-type UA140 background (Qi et al., 2005). Luciferase expressing S. mutans strain JM11 was constructed from UA140 as described (Merritt et al., 2005). Exponentially growing bacterial cells were diluted to ˜1×10^5 cfu/mL in TH and placed into 96-well plates (Fisher). Peptides were then serially diluted and added to the bacteria.

Another assay deals with S. sanguinis. In kind it is cell-based, S. sanguinis NY101. The method, then: as §1, §2
The next assay relates to S. mutans UA159 and comD. The assay can be described thus: Binding of fluorescently labeled peptides to S. mutans (fluorescence microscopy). Details: species or system Streptococcus mutans. The following applies: fluorescently labeled peptide. An excerpt: To determine whether there was a region within the CSPC16 sequence that was responsible for S. mutans-specific binding, we synthesized a series of fluorescently labeled CSPC16 fragments, and analyzed their ability to bind to S. mutans. The following strategies were utilized in dissecting the CSPC16 sequence (Table 2): First, a series of fragments were constructed by generating deletions of 3 or 4 amino acids, from the N to C terminus, across the CSPC16 sequence (C16-1 to C16-5). Peptides lacking larger portions of the C or N termini of CSPC16 were also synthesized (C16-6 to C16-12). Additionally, peptides with Arg to […] (a positive to negative change in charge) (C16-4) or Phe to Gly substitutions (for a general decrease in hydrophobicity) (C16-3), as well as peptides representing a 4-residue Ala scan of the C16 sequence were constructed (C 16-15 to C16-18). […] These peptides include C16 (SEQ ID NO 1), C16-3 (SEQ ID NO 39), C16-4 (SEQ ID NO 40), C16-5 (SEQ ID NO 41), C16-6 (SEQ ID NO 42), C16-11 (SEQ ID NO 47), C16-12 (SEQ ID NO 5), C16-16 (SEQ ID NO 51), C16-17 (SEQ ID NO 52), and C16-18 (SEQ ID NO 53).
(§3) 1.2 Fluorescent labeling of peptides and fluorescence microscopy. Aliquots of CSPC16 (SEQ ID NO 2), CSP-fragment peptides (Table 2), and C16G2 (SEQ ID NO 4) were labeled with carboxyfluorescein (Sigma) as described previously (Eckert et al., 2006). After peptide cleavage but prior to the bacterial labeling assay, fluorescence intensity per μM peptide was checked fluorimetrically (λex=488 nm, λem=520 nm VersaFluor, BioRad) and found to be relatively similar (data not shown). To evaluate the level of peptide binding to bacteria, streptococci from an overnight culture (OD600 of 0.7-1.0) were washed with phosphate buffered saline (1×PBS), diluted 1:2 into 1×PBS, and exposed to peptide (16 μM) for 5 min at 25° C. After incubation with peptide, unbound agent was removed from the bacteria by three cycles of centrifugation (5 min, 16,000×g) and resuspension in 1×PBS. Labeling of oral streptococci was evaluated using brightfield and fluorescence microscopy (Nikon E400) at a 40× magnification. The digital images utilized for the semi-quantitative binding assessment were acquired with the factory-supplied software (SPOT, Diagnostics).

The next assay deals with other oral streptococci. The assay can be described thus: Binding of fluorescently labeled peptides to other oral streptococci. The following applies: fluorescently labeled peptide.
Description: as §3

The term MIC denotes the lowest concentration that inhibits growth of the organism. A higher MIC goes with weaker potency. As to “TFFRLFNRSFTQALGKGGGKNLRIIRKGIHIIKKY-NH2 [Peptide C16G2]”, the “biofilm re-growth after treatment (OD600)” value in the assay on S. mutans biofilms is on record as “severely inhibited”. Moreover, the “increase in antimicrobial activity over the parental antimicrobial peptide G2” value in the assay on S. mutans (MIC, S. mutans strains) is 4-5 fold. Besides, the MIC is 3.8 ± 0.3 µM against S. mutans (S. mutans 25175); 3.7 ± 0.2 µM against S. mutans (S. mutans T8); 3.0 ± 1.6 µM in the assay with S. mutans (S. mutans UA159); 5.1 ± 2.4 µM against S. mutans (S. mutans comD); 19.1 ± 4.0 µM against S. sanguinis. Further, the “difference in susceptibility between G2 and C16G2” value in the assay on S. sanguinis (MIC, S. sanguinis) is listed as at most 2 fold. Also, the “binding to S. mutans (in words)” value in the assay with S. mutans UA159 and comD was “could specifically bind to S. mutans”. The “binding to other oral streptococci” value with other oral streptococci is reported as “not to other oral streptococci”.
